Data as given in US8883745B2, “C—glycolipids with enhanced Th-1 profile” (New York University, priority 2006, dated 2014).

What was measured:
IFN-γ = IFN-γ levels in sera upon i.v. glycolipid administration to C57BL/6 mice (ELISA); format: in vivo; set-up: IFN-γ levels, test 1 / IFN-γ levels, test 2 / IFN-γ levels, average / IFN-γ levels, Total / IFN-γ (B6): unit not given here; details: for IFN-γ/IL-4 (B6): C57BL/6, ratio calculated from Tables 1-6; for IFN-γ levels, average / IFN-γ levels, test 1 / IFN-γ levels, test 2 / IFN-γ levels, Total: C57BL/6, serum; for IFN-γ levels, Total: total over hours 0-72
Description: (§1) Five- to six-week-old female C57BL/6 mice and BALB/c mice were purchased from Taconic. Each glycolipid was stored at 1 mg/ml in 100% DMSO. Mice were injected intravenously with 1 μg of each glyocolipid diluted in 200 μL sterile phosphate buffered saline (PBS). At indicated time points, sera were collected from each animal, and concentrations of IFN-γ, IL-4, and IL-12 in the sera were evaluated by enzyme-linked immunosorbent assay (ELISA). Serum concentrations of IFN-γ, IL-4, and IL-12 were evaluated using an ELISA kit (eBioscience, San Diego, Calif.). Briefly, 96 well flat-bottom ELISA plates (NUNC) were coated with capture antibody according to the manufacture's recommendation and incubated overnight at 4° C. The plates were washed with PBS+0.05% Tween 20 (PBS-T), then incubated with manufacturer provided blocking solution for 1 hr at room temperature to block non-specific binding sites. After washing with PBS-T, sera diluted 1:10 was added to the wells and incubated for 2 hrs at room temperature. Plates were then incubated at room temperature for 1 hr with biotintylated detection antibody, washed, incubated with avidin conjugated to horse radish peroxidase (HRP) for 30 min at room temperature, washed, and finally incubated with tetramethylbenzidine substrate solution in the dark for 10 minutes at room temperature. The antibodies, avidin-HRP, and substrate solution were all diluted according to the manufacture's recommendation. Reactions were stopped with 2.0N sulfuric acid and the cytokine concentration in each well was determined by comparing the absorbance at 450 nm in each well to known standards. The levels of Th1- and Th2-type cytokines were determined in two different genetic backgrounds, i.e., in C57BL/6 mice and BALB/c mice. The following compounds were administered: A=compound (A-1 trans-conformer), B=compound (A-2), C=compound (A-3), D=compound (A-4), E=compound (A-5), Z=control (PBS alone), CRONY=α-C-GalCer, KRN=α-GalCer, GCK109 (A-1 trans-conformer), GCK151 (A-1 cis-conformer), GCK152 (A-7). The levels of cytokines were measured at 0, 2, 6, 12, 24, 48, and 72 hours after the compound administration. The levels of Th1-type cytokines IFN-γ and IL-12 are summarized in FIGS. 2A-C and 3A-C, respectively. Table 7 provides IFN-γ/IL-4 and IL-12/IL-4 ratios for various compounds, which can be used as indicators of their ability to selectively stimulate Th1-type immune responses.

IL-4 = IL-4 levels in sera upon i.v. glycolipid administration to C57BL/6 mice (ELISA); format: in vivo; set-up: unit not given here; details: for IL-4 level, Total: total over hours 0-72
Description: as §1

## CCCCCCCCCCCCCCCCC/C=C/CCCCCCCCC(=O)N[C@@H](CC[C@H]1O[C@H](CO)[C@H](O)[C@H](O)[C@H]1O)[C@H](O)[C@H](O)CCCCCCCCCCCCCC [A-3]
IFN-γ
  IFN-γ/IL-4 (B6): 14
  IFN-γ levels, Total: 12751
IFN-γ; hour 0
  IFN-γ levels, average: 31
  IFN-γ levels, test 1: 31
  IFN-γ levels, test 2: 31
IFN-γ; hour 2
  IFN-γ levels, average: 213
  IFN-γ levels, test 1: 185
  IFN-γ levels, test 2: 241
IFN-γ; hour 6
  IFN-γ levels, average: 606
  IFN-γ levels, test 1: 542
  IFN-γ levels, test 2: 670
IFN-γ; hour 12
  IFN-γ levels, average: 2440.5
  IFN-γ levels, test 1: 2665
  IFN-γ levels, test 2: 2216
IFN-γ; hour 24
  IFN-γ levels, average: 9036
  IFN-γ levels, test 1: 9837
  IFN-γ levels, test 2: 8235
IFN-γ; hour 48
  IFN-γ levels, average: 344
  IFN-γ levels, test 1: 382
  IFN-γ levels, test 2: 306
IFN-γ; hour 72
  IFN-γ levels, average: 79.5
  IFN-γ levels, test 1: 75
  IFN-γ levels, test 2: 84
IL-4; hour 0
  IL-4 level, average: 46
  IL-4 level, test 1: 46
  IL-4 level, test 2: 46
IL-4; hour 2
  IL-4 level, average: 576
  IL-4 level, test 1: 398
  IL-4 level, test 2: 754
IL-4; hour 6
  IL-4 level, average: 72.5
  IL-4 level, test 1: 59
  IL-4 level, test 2: 86
IL-4; hour 12
  IL-4 level, average: 49
  IL-4 level, test 1: 43
  IL-4 level, test 2: 55
IL-4; hour 24
  IL-4 level, average: 57.5
  IL-4 level, test 1: 49
  IL-4 level, test 2: 66
IL-4; hour 48
  IL-4 level, average: 54.5
  IL-4 level, test 1: 54
  IL-4 level, test 2: 55
IL-4; hour 72
  IL-4 level, average: 58
  IL-4 level, test 1: 54
  IL-4 level, test 2: 62
IL-4
  IL-4 level, Total: 915

## CCCCCCCCCCCCCC[C@@H](O)[C@@H](O)[C@H](CC[C@H]1O[C@H](CO)[C@H](O)[C@H](O)[C@H]1O)NC(=O)CCCCCCCCCCCCCCCCCCCOCCCCCC [A-4]
IFN-γ
  IFN-γ/IL-4 (B6): 10
  IFN-γ levels, Total: 10532
IFN-γ; hour 0
  IFN-γ levels, average: 31
  IFN-γ levels, test 1: 31
  IFN-γ levels, test 2: 31
IFN-γ; hour 2
  IFN-γ levels, average: 308.5
  IFN-γ levels, test 1: 255
  IFN-γ levels, test 2: 362
IFN-γ; hour 6
  IFN-γ levels, average: 1329
  IFN-γ levels, test 1: 1381
  IFN-γ levels, test 2: 1277
IFN-γ; hour 12
  IFN-γ levels, average: 2335.5
  IFN-γ levels, test 1: 2466
  IFN-γ levels, test 2: 2205
IFN-γ; hour 24
  IFN-γ levels, average: 5563.5
  IFN-γ levels, test 1: 5291
  IFN-γ levels, test 2: 5836
IFN-γ; hour 48
  IFN-γ levels, average: 742
  IFN-γ levels, test 1: 581
  IFN-γ levels, test 2: 903
IFN-γ; hour 72
  IFN-γ levels, average: 220.5
  IFN-γ levels, test 1: 245
  IFN-γ levels, test 2: 196
IL-4; hour 0
  IL-4 level, average: 46
  IL-4 level, test 1: 46
  IL-4 level, test 2: 46
IL-4; hour 2
  IL-4 level, average: 696.5
  IL-4 level, test 1: 627
  IL-4 level, test 2: 766
IL-4; hour 6
  IL-4 level, average: 126
  IL-4 level, test 1: 83
  IL-4 level, test 2: 169
IL-4; hour 12
  IL-4 level, average: 43.5
  IL-4 level, test 1: 40
  IL-4 level, test 2: 47
IL-4; hour 24
  IL-4 level, average: 29.5
  IL-4 level, test 1: 29
  IL-4 level, test 2: 30
IL-4; hour 48
  IL-4 level, average: 28.5
  IL-4 level, test 1: 39
  IL-4 level, test 2: 18
IL-4; hour 72
  IL-4 level, average: 41.5
  IL-4 level, test 1: 54
  IL-4 level, test 2: 29
IL-4
  IL-4 level, Total: 1014
